# Publication PMC8113213, “Physiologically based kinetic modelling based prediction of in vivo rat and human acetylcholinesterase (AChE) inhibition upon exposure to diazinon” (Archives of Toxicology, 2021)
# Target: T1, recombinant human AChE (rhAChE) (Homo sapiens, UniProt P22303)
# T1 construct: purchased Sigma-Aldrich Co
# Test: biochemical
# Procedure: However, since recombinant rat AChE was not commercially available, extracted rat RBC AChE was used. […] The concentration of DTNB was calculated based on the concentration ratio (ATC/DTNB) of 2 (Stern et al. [2014]). […] To initiate the inhibition reaction, 1 µl rhAChE or rat AChE (final concentration 0.6 mU/ml) was added to the incubation. The total incubation volume was 50 µl. After 15 min incubation at 37℃, 150 µl reaction reagents (mixture of ATC at a final concentration of 150 µM and DTNB at a final concentration of 75 µM) were added into each well. The final total volume of each well was 200 µl. Subsequently, the 96-well plate was measured continuously for 10 min at absorbance 412 nm at 37℃ to quantify the remaining AChE activity.
# The rhAChE and rat AChE activity were expressed as the remaining AChE activity relative to solvent control (100% activity) and positive control (0% activity) based on Eq. (2):2 AChEactivity\%=A412t10-t0testcompound-A412t10-t0positivecontrol/A412t10-t0solventcontrol-A412t10-t0positivecontrol×100\% , where the A412(t10 − t0)test compound is the change in the absorbance at A412 nm between 0 and 10 min for the test compound, the A412(t10 − t0)positive control is the change in the absorbance at A412 nm between 0 and 10 min for the CPO sample, and the A412(t10 − t0)solvent control is the change in the absorbance at A412nm between 0 and 10 min for the 0.2% ethanol sample.
# T1 sequence (P22303 32-614): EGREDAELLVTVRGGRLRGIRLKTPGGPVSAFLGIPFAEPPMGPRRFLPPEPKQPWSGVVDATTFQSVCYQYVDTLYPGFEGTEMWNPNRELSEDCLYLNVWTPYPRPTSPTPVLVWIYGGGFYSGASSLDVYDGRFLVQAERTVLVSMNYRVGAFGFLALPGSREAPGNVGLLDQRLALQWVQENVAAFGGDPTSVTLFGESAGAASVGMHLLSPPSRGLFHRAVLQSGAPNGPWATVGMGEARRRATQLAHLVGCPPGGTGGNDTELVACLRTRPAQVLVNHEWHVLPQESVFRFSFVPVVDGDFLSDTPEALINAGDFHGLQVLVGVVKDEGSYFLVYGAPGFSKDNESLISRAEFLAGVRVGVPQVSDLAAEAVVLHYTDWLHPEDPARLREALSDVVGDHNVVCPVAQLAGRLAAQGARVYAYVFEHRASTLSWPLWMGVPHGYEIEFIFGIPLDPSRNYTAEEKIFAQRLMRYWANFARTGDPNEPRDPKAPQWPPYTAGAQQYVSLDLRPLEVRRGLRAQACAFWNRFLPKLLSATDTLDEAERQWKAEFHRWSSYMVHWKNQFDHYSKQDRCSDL
structure (smiles),measurement,setting,value
"CCOP(=S)(OCC)Oc1cc(C)nc(C(C)C)n1 [DZN, O,O-diethyl O-2-isopropyl-6-methylpyrimidin-4-yl phosphorothioate]",lower AChE inhibitory potency of DZN than of DZO,,around 300 fold
same,IC50,"rhAChE, 15 min incubation at 37℃, read-out: IC50 for inhibition of AChE activity",14.3 µM
